# Source: patent US11064704B2, “Natural product formulations with improved residual insect repellent/deterrent activity” (University of Mississippi, priority 2016, dated 2021)
# Experiments:
# Aedes aegypti = test: in vitro Klun and Debboun (K&D) biting deterrent bioassay; format: in vivo
# Procedure: Experiments were conducted by using a six-celled in vitro Klun and Debboun (K&D) module bioassay system developed by Klun et al. (2005) for quantitative evaluation of biting deterrence. Briefly, the assay system consists of a six well reservoir with each of the 3×4 cm wells containing 6 mL of blood or feeding solution. As described by Ali et al. (2012), a feeding solution consisting of CPDA-1 and ATP was used instead of blood. Green fluorescent tracer dye (www.blacklightworld.com) was used to determine the feeding by the females. Carrot seed essential oil was initially tested to determine the biting deterrent activity. […] Essential oil and carotol were further tested against Ae. aegypti and An. quadrimaculatus in this bioassay. Treatments of carrot seed essential oil at 10 μg/cm^2 and carotol were tested at 10 and 5 μg/cm^2, whereas DEET (97% N,N-diethyl-meta-toluamide) (Sigma Aldrich, St. Louis, Mo.) at 25 nmol/cm^2 was used as positive control. All the treatments were freshly prepared in molecular biology grade 100% ethanol (Fisher Scientific Chemical Co. Fairlawn, N.J.) at the time of bioassay.
# The temperature of the solution in the reservoirs was maintained at 37° C. by continuously passing warm water through the reservoir using a circulatory bath. The reservoirs were covered with a layer of collagen membrane (Devro, Sandy Run, S.C.). The test compounds were randomly applied to six 4×5 cm areas of organdy cloth and positioned over the membrane-covered CPDA-1+ATP solution with a Teflon® separator placed between the treated cloth and the six-celled module to prevent the contamination of the module. A six-celled K&D module containing five female mosquitoes per cell was positioned over cloth treatments covering the six CPDA-1+ATP solution membrane wells, and trap doors were opened to expose the treatments to these females. The number of mosquitoes biting through organdy treatments in each cell was recorded after a 3 minute exposure, and mosquitoes were prodded back into the cells to check the actual feeding. Mosquitoes were squashed and the presence of green fluorescent tracer dye (or not) in the gut was used as an indicator of feeding. A replicate consisted of six treatments: four test compounds, DEET (a standard biting deterrent) and ethanol-treated organdy as solvent control applied randomly. Sets of 5 replications each with 5 females per treatment were conducted on 2-3 different days using newly-treated organdy and a new batch of females in each replication. Treatments were replicated 10-15 times. Proportion not biting (PNB) was calculated using the procedure described by Ali et al. (2012).
# mosquitoes = test: in vivo direct skin application bioassay
# Procedure: Direct skin application bioassays were conducted by using a powder-free latex glove (Diamond Grip, Microflex Corporation, Reno, Nev.). An opening of 3×4 cm was cut through the glove to fit on dorsal surface of the hand (FIG. 1). After wearing the glove, a wristband was used to avoid the biting on the hand near the border of the glove. Approximately, 500 (±5%), consisting primarily of females were transferred to a test cage (45×45×45 cm) using an aspirator. A series of dosages were tested to determine MED for repellency as well as residual activity against mosquitoes. A single test consisted of covering the hand of a volunteer with a powder-free latex glove and treating 12 cm^2 surface area, cut through the glove, on dorsal surface of the hand. Marked skin surface area was treated with the test compound in 50 μl of total volume. Because of constrain of man power, only one volunteer who was provided with a written informed consent participated in this study. A protocol approved by the University of Mississippi Human Use Institutional Review Board (IRB protocol #15-070) was followed.
# The test started when the hand treated (3×4 cm area cut through the glove on the dorsal surface) with a test compound was inserted into the mosquito cage. […] Any treatment with […] females biting during 1 min test period was considered as “passed” whereas a treatment with ≥5 bites out of 500 mosquitoes was considered as “failed”. In case of passing the next lower and in case of failure next higher serial dose was tested to reach MED. Additionally, data on the residual repellent activity was recorded by exposing the treatments to the females after every 30 minutes until the treatment failed. Carrot essential oil, carotol and DEET and the mixtures were tested.
# Direct skin application bioassays were conducted by using a powder-free latex glove (Diamond Grip™, Microflex Corporation, Reno, Nev.). An opening of 3×4 cm was cut through the glove to fit on the dorsal surface of the hand. After donning the glove, a wristband was used to avoid biting on the hand near the border of the glove. Approximately 500 (±5%) mosquitoes, consisting primarily of females, were transferred to a test cage (45×45×45 cm) using an aspirator. A series of dosages were tested to determine MED for repellency as well as residual activity against mosquitoes.
# A single test consisted of covering the hand of a volunteer with a powder-free latex glove and treating a 12 cm^2 surface area, cut through the glove, on the dorsal surface of the hand. Marked skin surface area was treated with the test compound in 50 μl of total volume. Because of constraints of man power, only one volunteer who was provided with a written informed consent participated in this study. A protocol approved by the University of Mississippi Human Use Institutional Review Board (IRB Protocol #15-070) was followed.
# The test started when the hand treated (3×4 cm area cut through the glove on the dorsal surface) with a test compound was inserted into the mosquito cage. […] Any treatment with ≤5 females biting during the 1 min test period was considered as “passed”, whereas a treatment with ≥5 bites out of 500 mosquitoes was considered as “failed”. In case of passing, the next lower, and in case of failure, the next higher, serial dose was tested to reach MED. Additionally, data on the residual repellent activity were recorded by exposing the treatments to the females after every 30 minutes until the treatment failed. Carrot seed essential oil, carotol, geranium and lemon Eucalyptus essential oils, DEET, picaridin and the mixtures were tested.
SMILES,proportion not biting (PNB) (Aedes aegypti; 25 nmol/cm^2),residual activity: time post application at which MED level crossed (mosquitoes; 1% rate of application) [h],residual activity: time post application at which MED level crossed (mosquitoes; 2% rate of application) [h],proportion not biting (PNB) (Aedes aegypti; 5 μg/cm^2),proportion not biting (PNB) (Aedes aegypti; 10 μg/cm^2),biting deterrent activity (Aedes aegypti; compared with DEET),residual activity: time post application at which MED reached (mosquitoes; 8% application rate) [h],residual activity: time post application at which MED reached/crossed (mosquitoes; 12.5% application rate) [h],residual activity: time post application at which MED reached (mosquitoes; 25% application rate) [h],residual activity: time post application at which MED reached (mosquitoes; 50% application rate) [h]
"CCN(CC)C(=O)c1cccc(C)c1 [DEET, N,N-diethyl-meta-toluamide, reference compound]",0.85,1,1,,,,,,,
CC1=CC[C@]2(C)CC[C@@H](C(C)C)[C@]2(O)CC1 [carotol],,,,0.66,0.9,comparable to DEET,1.5,1.5,2,2.5
